{
  "source": "patent US20070105810A1",
  "about": "“THERAPEUTICS” (priority 2003, published 2007)",
  "system": "IP3-induced Ca2+ signal in Jurkat T cells",
  "assay": "Ca2+ signalling evoked by microinjection of IP3 in Jurkat T cells",
  "assay_type": "cell-based, human",
  "conditions": "co-injection of BZ52 1 mM with IP3 4 μM",
  "description": "NAADP (final concentration 100 nM), IP3 (final concentration 4 μM), and BZ52 (final concentration 1 mM) were injected into single Jurkat T cells while [Ca^2+]i was analyzed by Ca^2+ imaging. Data are presented as mean±SEM (n=4 to 13).\nThe Jurkat T cells were loaded with fura-2/AM and kept in the dark at room temperature until use. Glass coverslips were coated first with BSA (5 mg/ml) and subsequently with poly-L-lysine (0.1 mg/ml). Small chamber slides consisting of a rubber O-ring were sealed on thin (0.1 mm) glass coverslips by silicon grease. Then, 60 μl buffer A containing 140 mM NaCl, 5 mM KCl, 1 mM MgSO4, 1 mM CaCl2, 1 mM NaH2PO4, 5.5 mM glucose, and 20 mM HEPES (pH 7.4), and 40 μl cell suspension (2*10^6 cells/ml) suspended in the same buffer were added into the small chamber and the coverslip was mounted on the stage of a fluorescence microscope (Leica DM IRE2).\nRatiometric Ca^2+ imaging was performed as described earlier. In brief, we used an Improvision imaging system (Heidelberg, Germany) built around the Leica microscope at 100-fold magnification. Illumination at 340 and 380 nm was carried out using a monochromator system (Polychromator IV, TILL Photonics, Graefelfing, Germany). Images were taken with a gray-scale CCD camera (type C4742-95-12ER; Hamamatsu, Enfield, United Kingdom; operated in 8-bit mode). […]",
  "data": [
    {"smiles": "CCCCN(CCCC)C(=O)C[n+]1cccc(C(=O)O)c1", "note": "[BZ52, 3-Carboxy-1-dibutylcarbamoylmethyl-pyridinium]", "values": [
      {"measurement": "IP3-induced Ca2+ signal", "value": "no difference"}
    ]}
  ]
}
